The source made the active and inactive calls. No rule for the calls is given here.
Test system: rodent carcinogenicity bioassays, tumor incidence
Assay: CCRIS carcinogenicity studies
In short: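 Archive of carcinogenicity, mutagenicity, tumor promotion and tumor inhibition results drawn from journals, NCI reports and other sources, expert-reviewed; covers 1985-2011 and is no longer updated.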

Measured: carcinogen call

CCN(N=O)C(N)=O
active: Species: HAMSTER, Strain/Sex: SYRIAN/FEMALE, Route: GAVAGE, Dose: 0, 12 MG/ML ((0.2 ML OF A SOLUTION IN ETHYL ACETATE/CORN OIL (1:2)) 1/WK FOR 20 WK (STUDY DURATION: LIFE SPAN), Tumor Site: Type of Lesion: SPLEEN: HEMANGIOSARCOMA, FORESTOMACH: SQUAMOUS CELL CARCINOMA OR PAPILLOMA active; positive | Species: HAMSTER, Strain/Sex: SYRIAN/MALE, Route: GAVAGE, Dose: 0, 12 MG/ML ((0.2 ML OF A SOLUTION IN ETHYL ACETATE/CORN OIL (1:2)) 1/WK FOR 20 WK (STUDY DURATION: 20 WK), Tumor Site: Type of Lesion: SPLEEN: HEMANGIOSARCOMA, FORESTOMACH: SQUAMOUS CELL CARCINOMA OR PAPILLOMA active; positive | Species: HAMSTER, Strain/Sex: SYRIAN/MALE, Route: INTRAPERITONEAL, Dose: 60, 274 MG/KG IN SODIUM CHLORIDE/SODIUM CITRATE ONCE, Tumor Site: Type of Lesion: FORESTOMACH: SQUAMOUS CELL PAPILLOMA active; positive | Species: MOUSE, Route: INTRAPERITONEAL, Tumor Site: Type of Lesion: LIVER, KIDNEY, OVARIES, LUNG, HARDERIAN GLAND, LYMPHATIC SYSTEM, STOMACH, Tumor Site: Type of Lesion: LIVER, KIDNEY, OVARIES, LUNG, HARDERIAN GLAND, LYMPHATIC SYSTEM, STOMACH active; positive | Species: MOUSE, Route: SUBCUTANEOUS, Tumor Site: Type of Lesion: LIVER, LUNG, LYMPHATIC SYSTEM, Tumor Site: Type of Lesion: LIVER, LUNG, LYMPHATIC SYSTEM active; positive | Species: RAT, Route: INTRAPERITONEAL, Tumor Site: Type of Lesion: LYMPHATIC SYSTEM: LYMPHOMA, HEMATOPOIETIC SYSTEM (LEUKEMIA) active; positive | Species: RAT, Route: INTRAVENOUS, Tumor Site: Type of Lesion: BRAIN, NERVOUS SYSTEM (PERIPHERAL), HEMATOPOIETIC SYSTEM (LEUKEMIA), UTERUS, VAGINA, Tumor Site: Type of Lesion: BRAIN, NERVOUS SYSTEM (PERIPHERAL), HEMATOPOIETIC SYSTEM (LEUKEMIA), UTERUS, VAGINA active; positive | Species: RAT, Route: ORAL, Tumor Site: Type of Lesion: BRAIN, NERVOUS SYSTEM (PERIPHERAL), HEMATOPOIETIC SYSTEM (LEUKEMIA), Tumor Site: Type of Lesion: BRAIN, NERVOUS SYSTEM (PERIPHERAL), HEMATOPOIETIC SYSTEM (LEUKEMIA) active; positive | Species: RAT, Route: PRE-NATAL EXPOSURE, Tumor Site: Type of Lesion: NERVOUS SYSTEM active; positive | Species: RAT, Route: SUBCUTANEOUS, Tumor Site: Type of Lesion: BRAIN, NERVOUS SYSTEM (PERIPHERAL) active; positive | Species: RAT, Strain/Sex: F344/FEMALE, Route: GAVAGE, Dose: 0, 6, 12 MG/ML (TOTAL DOSE 0; 0.4; 0.8 MMOL) IN 2 ML ETHYL ACETATE AND CORN OIL (1:2) 2/WK FOR 20 WK (STUDY DURATION: LI, Dose: 0, 6, 12 MG/ML (TOTAL DOSE 0; 0.4; 0.8 MMOL) IN 2 ML ETHYL ACETATE AND CORN OIL (1:2) 2/WK FOR 20 WK (STUDY DURATION: LI, Tumor Site: Type of Lesion: FORESTOMACH: SQUAMOUS CELL CARCINOMA, LUNG: TUMOR, MAMMARY GLAND: TUMOR, Tumor Site: Type of Lesion: FORESTOMACH: SQUAMOUS CELL CARCINOMA, LUNG: TUMOR, MAMMARY GLAND: TUMOR active; positive | Species: RAT, Strain/Sex: F344/FEMALE, Route: GAVAGE, Dose: 0, 6, 12 MG/ML IN 0.2 ML ETHYL ACETATE AND CORN OIL 2/WK FOR 20 WK (STUDY DURATION: LIFESPAN), Dose: 0, 6, 12 MG/ML IN 0.2 ML ETHYL ACETATE AND CORN OIL 2/WK FOR 20 WK (STUDY DURATION: LIFESPAN), Tumor Site: Type of Lesion: FORESTOMACH: TUMOR, LUNG: TUMOR, MAMMARY GLAND: TUMOR, UTERUS: TUMOR, ZYMBAL GLAND: TUMOR, Tumor Site: Type of Lesion: FORESTOMACH: TUMOR, LUNG: TUMOR, MAMMARY GLAND: TUMOR, UTERUS: TUMOR, ZYMBAL GLAND: TUMOR active; positive | Species: RAT, Strain/Sex: F344/FEMALE, Route: INTRAVESICULAR, Dose: 0, 1.2 MG 2/WK FOR 20 WK (STUDY DURATION: LIFETIME), Tumor Site: Type of Lesion: BLADDER: TUMOR active; positive | Species: RAT, Strain/Sex: F344/FEMALE, Route: INTRAVESICULAR, Dose: 0, 2.4 MG 2/WK FOR 14 WK (STUDY DURATION: LIFETIME), Tumor Site: Type of Lesion: BLADDER: TUMOR active; positive | Species: RAT, Strain/Sex: F344/FEMALE, Route: ORAL, Dose: 0, 0.3, 1, 3, 10 PPM IN DRINKING WATER FOR 104 WK (STUDY DURATION: 111 WK), Dose: 0, 0.3, 1, 3, 10 PPM IN DRINKING WATER FOR 104 WK (STUDY DURATION: 111 WK), Tumor Site: Type of Lesion: BRAIN: GLIOMA, UTERUS: ENDOMETRIAL STROMAL POLYP, MAMMARY GLAND: ADENOCARCINOMA, HEMATOPOIETIC SYSTEM: MONONUCLEAR CELL, Tumor Site: Type of Lesion: BRAIN: GLIOMA, UTERUS: ENDOMETRIAL STROMAL POLYP, MAMMARY GLAND: ADENOCARCINOMA, HEMATOPOIETIC SYSTEM: MONONUCLEAR CELL active; positive

Reference: PubChem BioAssay AID1259411 (Chemical Carcinogenesis Research Information System (CCRIS), 2018)
